“Also recorded” adds a separate entry of the source.
Assay: Phase I dose escalation study: safety, tolerability, DLT and MTD
Format: in vivo

## Cc1cccc2c1NC(=O)[C@@H](NC(=O)[C@H](CCC(F)(F)F)[C@H](CCC(F)(F)F)C(N)=O)N=C2c1cccc(F)c1 [BMS-986115]
Arm B BIW 8 mg (N = 8)
  Vision blurred (drug related AE, all grades): 1 (13) n (%)
  Vomiting (drug related AE, Grade 3 and 4): 0 n (%)
  Vomiting (drug related AE, all grades): 4 (50) n (%)
  Weight decreased (drug related AE, all grades): 0 n (%)
Arm B BIW 8 mg, 6 DLT evaluable patients
  No. of patients with DLTs: 2
Arm B BIW Total (N = 12)
  Abdominal distension (drug related AE, all grades): 1 (8) n (%)
  Abdominal pain (drug related AE, Grade 3 and 4): 0 n (%)
  Abdominal pain (drug related AE, all grades): 1 (8) n (%)
  Blood creatinine increased (drug related AE, all grades): 1 (8) n (%)
  Colitis (drug related AE, Grade 3 and 4): 0 n (%)
  Cough (drug related AE, Grade 3 and 4): 0 n (%)
  Cough (drug related AE, all grades): 1 (8) n (%)
  Decreased Appetite (drug related AE, Grade 3 and 4): 1 (8) n (%)
  Decreased Appetite (drug related AE, all grades): 5 (42) n (%)
  Dehydration (drug related AE, Grade 3 and 4): 1 (8) n (%)
  Dehydration (drug related AE, all grades): 2 (17) n (%)
  Dermatitis acneiform (drug related AE, all grades): 0 n (%)
  Diarrhoea (drug related AE, Grade 3 and 4): 3 (25) n (%)
  Diarrhoea (drug related AE, all grades): 8 (67) n (%)
  Dry mouth (drug related AE, all grades): 1 (8) n (%)
  Dry skin (drug related AE, all grades): 2 (17) n (%)
  Dysgeusia (drug related AE, all grades): 2 (17) n (%)
  Dyspepsia (drug related AE, all grades): 1 (8) n (%)
  Dysphonia (drug related AE, all grades): 1 (8) n (%)
  Fatigue (drug related AE, Grade 3 and 4): 0 n (%)
  Fatigue (drug related AE, all grades): 6 (50) n (%)
  Flatulence (drug related AE, all grades): 3 (25) n (%)
  Hypocalcaemia (drug related AE, Grade 3 and 4): 1 (8) n (%)
  Hypocalcaemia (drug related AE, all grades): 1 (8) n (%)
  Hypokalaemia (drug related AE, Grade 3 and 4): 0 n (%)
  Hypokalaemia (drug related AE, all grades): 3 (25) n (%)
  Hyponatraemia (drug related AE, Grade 3 and 4): 1 (8) n (%)
  Hyponatraemia (drug related AE, all grades): 1 (8) n (%)
  Hypophosphataemia (drug related AE, Grade 3 and 4): 6 (50) n (%)
  Hypophosphataemia (drug related AE, all grades): 7 (58) n (%)
  Ileus (drug related AE, Grade 3 and 4): 0 n (%)
  Increased upper airway secretion (drug related AE, all grades): 3 (25) n (%)
  Laryngeal pain (drug related AE, all grades): 0 n (%)
  Leucocytosis (drug related AE, Grade 3 and 4): 1 (8) n (%)
  Mouth ulceration (drug related AE, all grades): 1 (8) n (%)
  Nausea (drug related AE, Grade 3 and 4): 1 (8) n (%)
  Nausea (drug related AE, all grades): 7 (58) n (%)
  Pruritus (drug related AE, Grade 3 and 4): 0 n (%)
  Pruritus (drug related AE, all grades): 3 (25) n (%)
  Pulmonary embolism (drug related AE, Grade 3 and 4): 0 n (%)
  Rash (drug related AE, all grades): 3 (25) n (%)
  Rash maculopapular (drug related AE, all grades): 3 (25) n (%)
  Sinusitis (drug related AE, all grades): 0 n (%)
  Urticaria (drug related AE, Grade 3 and 4): 0 n (%)
  Vision blurred (drug related AE, all grades): 1 (8) n (%)
  Vomiting (drug related AE, Grade 3 and 4): 0 n (%)
  Vomiting (drug related AE, all grades): 4 (33) n (%)
  Weight decreased (drug related AE, all grades): 0 n (%)
Arm B BIW, all dose levels
  Patients with dose limiting toxicities: 2 patients
Arm B BIW, one line per subject
  Treatment-related SAEs, description: Gr 3 diarrhoea; also recorded: Gr 3 nausea, dehydration and decreased appetite
Arm B, twice weekly (BIW) oral dosing
  Maximum Tolerated Dose (MTD): not established
All 36 patients
  Treatment-related deaths: no treatment-related deaths
All 36 subjects
  Subjects who discontinued due to treatment-related AEs: 5 subjects
  Subjects who discontinued treatment due to AEs: 25%
  Subjects with treatment-related SAEs: 22%
All 36 subjects, overall
  Subjects with SAEs: 50%
All patients
  Hypokalaemia, treatment-related Gr 3 or 4 AE: 11%
  Hyponatraemia, treatment-related Gr 3 or 4 AE: 6%
  Nausea, treatment-related Gr 3 or 4 AE: 11%
All patients, all grades
  Decreased appetite, treatment related AE: 36%
  Diarrhoea, treatment related AE: 72%
  Hypokalaemia, treatment related AE: 28%
  Hypophosphataemia, treatment related AE: 64%
  Nausea, treatment related AE: 61%
  Rash, treatment related AE: 31%
All treated subjects
  Diarrhoea, AE regardless of causality: 72%

From paper PMC7523345 (Investigational new drugs, 2018)
